Some test systems named below: MALME-3M melanoma; IGROV1 ovarian; LOX IMVI melanoma; SNB-19 CNS; MDA-MB-231 breast; SF-295 CNS; A549 NSCLC; CCRF-CEM leukemia; HT29 colon; SK-OV-3 ovarian.
Common to all, as to test: NCI-60 cell line screen, 48 h

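96-well plates; 48 h exposure; 5 concentrations. Endpoints by linear interpolation between flanking doses. Not reached: highest tested concentration assigned. At the GI50, growth is halved. TGI denotes the concentration required for complete inhibition of growth.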

Regarding `COc1cc(C(=O)n2nc(N)c3c(C)cc(C)nc32)cc(OC)c1OC`, the GI50 in the assay on MALME-3M melanoma, in the assay on IGROV1 ovarian, with LOX IMVI melanoma, in the assay on SNB-19 CNS, with MDA-MB-231 breast and in the assay with SF-295 CNS was over 100 µM in each case. Also, the GI50 in the assay with A549 NSCLC was 41.5 µM; in the assay on CCRF-CEM leukemia, over 89.2 µM; in the assay with HT29 colon, 3.46 µM; with SK-OV-3 ovarian it was over 82.4 µM. The TGI in the assay with MALME-3M melanoma, in the assay with IGROV1 ovarian, in the assay with LOX IMVI melanoma, with SNB-19 CNS, with MDA-MB-231 breast and with SF-295 CNS was over 100 µM in each case. In addition, the TGI in the assay with A549 NSCLC, in the assay with CCRF-CEM leukemia, in the assay on HT29 colon and in the assay with SK-OV-3 ovarian was over 100 µM in each case.
In the case of `N=C(CC(=O)Nc1ccccn1)c1ccccc1`, the TGI in the assay with MALME-3M melanoma, with IGROV1 ovarian, with LOX IMVI melanoma, in the assay with SNB-19 CNS, in the assay on MDA-MB-231 breast and with SF-295 CNS was over 100 µM throughout. Besides, the TGI in the assay with A549 NSCLC, with CCRF-CEM leukemia, with HT29 colon and in the assay on SK-OV-3 ovarian was over 100 µM in each case.
In the case of `O=C1/C(=C/c2ccc([N+](=O)[O-])o2)Oc2ccc(Cl)cc21`, the GI50 in the assay with MALME-3M melanoma is 2.1 µM; in the assay on IGROV1 ovarian, 1.92 µM; with LOX IMVI melanoma it was 1.59 µM; with SNB-19 CNS it was 3.94 µM; in the assay with MDA-MB-231 breast, 1.77 µM; with SF-295 CNS, 11.5 µM. The GI50 is 6.45 µM with A549 NSCLC, 0.429 µM in the assay on CCRF-CEM leukemia, 1.87 µM in the assay with HT29 colon and 13 µM in the assay with SK-OV-3 ovarian. Besides, the TGI in the assay on MALME-3M melanoma was 4.47 µM; in the assay on IGROV1 ovarian, 4.5 µM; in the assay with LOX IMVI melanoma, 3.19 µM; in the assay on SNB-19 CNS, 16.7 µM; in the assay with MDA-MB-231 breast it was 4.12 µM; in the assay with SF-295 CNS, 49.1 µM. The TGI in the assay on A549 NSCLC is 59.1 µM; in the assay with CCRF-CEM leukemia it was 2.24 µM; with HT29 colon, 3.98 µM; in the assay on SK-OV-3 ovarian, 47.2 µM.
As to `Cc1cc(N(CCNc2ccnc3cc(Cl)ccc23)Cc2ccc3c(c2)OCO3)nc(N2CCCC2)n1`, the GI50 in the assay on MALME-3M melanoma is 1.89 µM; in the assay with IGROV1 ovarian, 1.54 µM; in the assay on LOX IMVI melanoma, 1.6 µM; in the assay with SNB-19 CNS it was 2.53 µM; with MDA-MB-231 breast, 1.28 µM; in the assay with SF-295 CNS, 1.34 µM. The GI50 in the assay with A549 NSCLC is 1.67 µM; with CCRF-CEM leukemia it was 1.57 µM; in the assay with HT29 colon, 0.706 µM; with SK-OV-3 ovarian it was 2.63 µM. The TGI was found to be 3.54 µM with MALME-3M melanoma; 3.64 µM in the assay with IGROV1 ovarian; 3.16 µM in the assay with LOX IMVI melanoma; 11.3 µM in the assay on SNB-19 CNS; 3.27 µM in the assay with MDA-MB-231 breast; 2.88 µM in the assay with SF-295 CNS. Besides, the TGI stood at 4.96 µM in the assay with A549 NSCLC, 9.09 µM in the assay on CCRF-CEM leukemia, 3.66 µM in the assay on HT29 colon and 8.15 µM with SK-OV-3 ovarian.
Take `CC12O[C@H](C[C@@H](OC(=O)CCC(=O)O)[C@H]1O)n1c3ccccc3c3c4c(c5c6ccccc6n2c5c31)C(=O)NC4=O`: the GI50 in the assay on MALME-3M melanoma was 0.2 µM; in the assay with IGROV1 ovarian, 0.664 µM; in the assay with LOX IMVI melanoma it was 1.47 µM; in the assay on SNB-19 CNS it was 3.62 µM; in the assay on MDA-MB-231 breast it was 6.3 µM; in the assay on SF-295 CNS, 1.5 µM. The GI50 with A549 NSCLC is 1.55 µM; in the assay with CCRF-CEM leukemia, 1.57 µM; in the assay with HT29 colon it was 1.45 µM; with SK-OV-3 ovarian, 0.323 µM. The TGI was 2.36 µM in the assay with MALME-3M melanoma; 38.8 µM in the assay on IGROV1 ovarian; 7.88 µM in the assay with LOX IMVI melanoma; 38.8 µM in the assay on SNB-19 CNS; 16.2 µM in the assay on MDA-MB-231 breast; 7.6 µM with SF-295 CNS. The TGI is over 50 µM with A549 NSCLC, 13.4 µM in the assay with CCRF-CEM leukemia, 17.7 µM with HT29 colon and 3.44 µM in the assay on SK-OV-3 ovarian.
Consider `CCOC(=O)/C=C1/SC(=Nc2ccc(C#N)cc2)N(Cc2ccco2)C1=O`, for which the GI50 with MALME-3M melanoma was 2.45 µM; in the assay with IGROV1 ovarian, 3.22 µM; with LOX IMVI melanoma it was 1.72 µM; in the assay on SNB-19 CNS it was 3.83 µM; in the assay on MDA-MB-231 breast, 4.29 µM; in the assay with SF-295 CNS, 9.99 µM. In addition, the GI50 with A549 NSCLC is 10.4 µM; in the assay on CCRF-CEM leukemia, 3.17 µM; in the assay with HT29 colon it was 2.11 µM; with SK-OV-3 ovarian it was 14.1 µM. Moreover, the TGI in the assay on MALME-3M melanoma amounted to 9.65 µM; in the assay on IGROV1 ovarian it was 20.2 µM; with LOX IMVI melanoma, 3.32 µM; in the assay on SNB-19 CNS, 13.8 µM; with MDA-MB-231 breast it was 23.5 µM; in the assay with SF-295 CNS, 26.6 µM. In addition, the TGI was 26.1 µM in the assay on A549 NSCLC, over 100 µM in the assay on CCRF-CEM leukemia, 4.61 µM with HT29 colon and 29.9 µM in the assay with SK-OV-3 ovarian.
With `Cc1c(C(N)=O)sc2nc(C)n(/N=c3\scc(-c4ccccc4)n3Cc3ccccc3)c(=O)c12`, the GI50 is 2.18 µM in the assay on MALME-3M melanoma; 1.43 µM in the assay with IGROV1 ovarian; 3.54 µM in the assay on LOX IMVI melanoma; 4.8 µM in the assay on SNB-19 CNS; 3.28 µM in the assay with MDA-MB-231 breast; 2.93 µM in the assay with SF-295 CNS. Also, the GI50 in the assay on A549 NSCLC is 3.79 µM; in the assay on CCRF-CEM leukemia, 34.2 µM; in the assay with HT29 colon, 3.04 µM; in the assay with SK-OV-3 ovarian, 4.51 µM. In addition, the TGI in the assay with MALME-3M melanoma was over 100 µM; in the assay on IGROV1 ovarian, 6.31 µM; in the assay on LOX IMVI melanoma it was over 100 µM; in the assay on SNB-19 CNS, over 100 µM; in the assay with MDA-MB-231 breast it was 8.41 µM; with SF-295 CNS, over 100 µM. In addition, the TGI with A549 NSCLC, with CCRF-CEM leukemia, in the assay on HT29 colon and in the assay on SK-OV-3 ovarian was over 100 µM throughout.
